# Laboratory results as given in the NIST ThermoML archive (doi:10.1021/je700131z).
# ± gives the expanded uncertainty stated by the source.
# Settings: Crystal; visual observation
smiles,measurement,value
OC[C@@H](O)[C@H](O)[C@@H](O)CO [xylitol],Normal melting temperature,94.50 ± 1.1 °C
